Source: US9221761B2, “Method for inhibition of deubiquitinating activity” (Vivolux AB, priority 2011, dated 2015)
pIC50: −log10 of the molar value.

Legend:
[1] = test system: HCT116; experiment: FMCA (Fluorometric Microculture Cytotoxicity Assay) cytotoxicity; format: cell-based; conditions: for cytotoxicity relative to structurally corresponding compounds with a 6-membered ring moiety: HCT-116, 72 hours, survival index, FIGS. 3b, 3d, 3f; for pIC50: 72 hours of continuous compound exposure
Protocol: FIGS. 1a to 1o are diagrams illustrating induction of dose-dependent cytotoxicity after 72 hours of continuous compound exposure to the reporter cell line HCT-116 by embodiments of the compound of the invention, as measured FMCA (Fluorometric Microculture Cytotoxicity Assay), as well as absence of such induction by structurally related compounds not comprised by the invention. Treated cells were compared to untreated controls (survival index);
Determination of cell apoptosis and viability. For determination of apoptosis parental HCT-116 p53+/+ cells are treated with the increasing doses of the compound of the invention for 24 h. […] HCT-116 cells are seeded in 96-well microtiter plates at 10,000 cells per well and incubated overnight. Cells are treated with indicated drug for 24 h. At the end of the incubation period, NP40 is added to the tissue culture medium to 0.1% and 25 μl of the content of each well was assayed using the M30-Apoptosense® ELISA as previously described (31). Cell viability is determined by measuring acid phosphatase activity or using the FMCA method (32). For the acid phosphatase activity cells are seeded at 5000 cells per well in 96-well culture plates and incubated for 12 h at 37° C. Compounds are added to the cells in growth media and incubated for 72 h at 37° C. Cells are washed with 200 μl warm PBS. 100 μl of para-nitrophenyl phosphate (pNPP, 2 mg/ml) in Na acetate buffer pH 5 (NaAc 0.1 M, 0.1% Triton-X-100) is added per well. Cells are incubated for 2 h after which reaction was stopped by addition of 1N NaOH. Absorbance is measured at 405 nm. The dose-dependent cytotoxicity of a number of embodiments of the compound of the invention is illustrated in FIGS. 1a-1o.
For the FMCA assay cells are seeded in the drug-prepared 384-well plates using the pipetting robot Precision 2000 (Bio-Tek Instruments Inc., Winooski, Vt.). The plates are incubated for 72 h and then transferred to an integrated HTS SAIGAN Core System consisting of an ORCA robot (Beckman Coulter) with CO2 incubator (Cytomat 2C, Kendro, Sollentuna, Sweden), dispenser module (Multidrop 384, Titertek, Huntsville, Ala.), washer module (ELx 405, Bio-Tek Instruments Inc), delidding station, plate hotels, barcode reader (Beckman Coulter), liquid handler (Biomek 2000, Beckman Coulter) and a multipurpose reader (FLUOstar Optima, BMG Labtech GmbH, Offenburg, Germany) for automated FMCA. Survival index (SI) is defined as the fluorescence of test wells in percentage of controls with blank values subtracted.
FIGS. 3b, 3d, 3f are diagrams illustrating the cytotoxicity of compounds of the invention nos. 1546, 1547, and 1570 with a 7-membered ring moiety in comparison to structurally corresponding compounds not comprised by the invention with a 6-membered ring moiety. Their induction of dose-dependent cytotoxicity was determined after 72 hours of continuous compound exposure to the reporter cell line HCT-116. Treated cells were compared with untreated controls. Cytotoxicity is visualized as survival index (SI) over the range of about 90% SI to about 0% SI in dependence on compound concentration.

[2] = test system: MelJuSo Ub-YFP reporter cell line; experiment: Proteasome inhibition in reporter cell line, YFP accumulation in IncuCyte-FLR; format: cell-based; conditions: YFP accumulation measured for 48 hours; for MeJuSo-UB, lowest effective conc.: Table 2; for MeJuSo-UB, IncuCyte lowest effective conc.: Table 1
Description: Cell culture. MCF7 cells are maintained in MEM/10% fetal calf serum. HCT-116 p53+/+, p53−/−, Bcl-2+/+, PUMA−/− and BAX−/− cells are maintained in McCoy's 5A modified medium/10% fetal calf serum. The HCT-116 p53+/+, p53−/−, PUMA−/− and BAX−/− are generated as described (25). The HCT-116 Bcl-2+/+ cell line was generated by transfecting parental HCT-116 p53+/+ cells with pCEP4 Bcl-2 (Addgene plasmid 16461) (26) and isolating high expression clones. FaDu and LLC3 cells are maintained in DMEM high glucose medium supplemented with 10% fetal calf serum, Na pyruvate, Hepes and non-essential amino acids. 4T1.12B carcinoma cells are maintained in RPMI medium supplemented with 10% fetal calf serum. The proteasome reporter cell line MelJuSo Ub-YFP was generated as described (12). Cells were maintained in Dulbecco's Modified Eagle's Medium/10% fetal calf serum. […] The retinal epithelial cell line was generated as described (28). All cells are maintained at 37° C. in 5% CO2.
The compound of the invention induces proteasome inhibition. The reporter cell line MelJuSo Ub-YFP, which is engineered to accumulate yellow fluorescent protein (YFP) upon proteasome inhibition (12), was used for compound evaluation. The accumulation of YFP was measured for 48 hours in an IncuCyte-FLR system (Essen Bioscience, Essen, UK), which is an automated fluorescence microscope. Numbers of positive cells per field were used as a measure of proteasome inhibition.

[3] = Dissolution in 25% by weight Kolliphor HS15; format: physicochemical
Protocol: Pharmaceutical composition E (solution). For intraperitoneal administration a 25% by weight Kolliphor HS15 stock solution was prepared by melting an entire container of Kolliphor HS15 (Sigma 42966) by warming to 60° C. and diluting with deionized water to 25% w/w. To compound #1570 (18.0 mg) in a 10 mL sample tube was added 10.0 mL of the stock solution and the tube vortexed, treated with ultrasound at about 50° C. for about 2 h, and occasionally heated to about 83° C. […] By the same procedure solutions of compounds #1546 and #1571 were prepared; these compounds were however not fully dissolved. The non-dissolved residue was weighed, and the weight deducted from the starting weight of compound (18 mg).

SMILES | pIC50 ([1]; Table 2) | MeJuSo-UB, lowest effective conc. [2] | pIC50 ([1]; Table 1) | MeJuSo-UB, IncuCyte lowest effective conc. [2] | further results
C=CC(=O)N1CCC(=Cc2ccc([N+](=O)[O-])cc2)C(=O)C(=Cc2ccc([N+](=O)[O-])cc2)C1 [Compound 1546] | 5.92 | 2 µM | – | – | cytotoxicity relative to structurally corresponding compounds with a 6-membered ring moiety [1]: more cytotoxic; amount of compound contained in prepared solution (10 ml) ([3]; 18 mg starting weight, 25% w/w Kolliphor HS15, ultrasound about 50° C., non-dissolved residue deducted): 8.5 mg
COc1ccc(C=C2CN(C)CCC(=Cc3ccc(Cl)cc3)C2=O)cc1 [Compound 1590] | – | – | 5.70 | 1 µM | –
CN1CCC(=Cc2ccc(F)c(C#N)c2)C(=O)C(=Cc2ccc(F)c(C#N)c2)C1 [Compound 1618] | – | – | 5.82 | 0.5 µM | –
O=C1C(=Cc2cc(F)cc(C(F)(F)F)c2)CCNCC1=Cc1cc(F)cc(C(F)(F)F)c1 [Compound 1611] | – | – | 5.96 | 0.5 µM | –
C=CC(=O)N1CCC(=Cc2ccc(F)c([N+](=O)[O-])c2)C(=O)C(=Cc2ccc(F)c([N+](=O)[O-])c2)C1 [Compound 1570] | 6.30 | 0.25 µM | – | – | cytotoxicity relative to structurally corresponding compounds with a 6-membered ring moiety [1]: more cytotoxic; dissolution of 18.0 mg in 10.0 mL stock solution ([3]; 25% w/w Kolliphor HS15, ultrasound about 50° C. about 2 h): clear solution
COc1ccc(/C=C2\CN(C)CC/C(=C\c3ccc(F)cc3)C2=O)cc1 [Compound 1577, (3E,5E)-5-[(4-fluorophenyl)methylidene]-3-[(4-methoxyphenyl)methylidene]-1-methylazepan-4-one] | – | – | – | 8 µM | pIC50 ([1]; Homo sapiens, HCT-116, Table 1): 5.31
CCOc1cc(CC(=O)N2CCC(=Cc3ccc(Cl)cc3)C(=O)C(=Cc3ccc(Cl)cc3)C2)ccc1O [Compound 1639] | 5.92 | 1 µM | – | – | –
CC(=O)N1CCC(=Cc2ccc(F)c(F)c2)C(=O)C(=Cc2ccc(F)c(F)c2)C1 [Compound 1628] | 5.64 | 1 µM | – | – | –
CN1CCC(=Cc2cc(F)cc(C(F)(F)F)c2)C(=O)C(=Cc2cc(F)cc(C(F)(F)F)c2)C1 [Compound 1612] | – | – | 6.15 | 0.25 µM | –
O=C1C(=Cc2ccc(Cl)cc2)CCNCC1=Cc1ccc(F)cc1 [Compound 1586] | – | – | 5.96 | 0.5 µM | –
COc1ccc(C=C2CNCCC(=Cc3ccc(F)cc3)C2=O)cc1 [Compound 1576] | – | – | 5.80 | 8 µM | –
O=C1C(=Cc2ccc(Cl)cc2)CCN(C(=O)Cc2ccccc2)CC1=Cc1ccc(Cl)cc1 [Compound 1635] | 5.85 | 2 µM | – | – | –
CN1CCC(=Cc2ccc(F)cc2)C(=O)C(=Cc2ccc(Cl)cc2)C1 [Compound 1595] | – | – | 5.64 | 1 µM | –
O=C1/C(=C/c2cc(F)c(F)c(F)c2)CCN(C(=O)Cc2ccccn2)C/C1=C\c1cc(F)c(F)c(F)c1 [Compound 1653] | 6.15 | 1 µM | – | – | –
O=C1/C(=C/c2ccc(Cl)cc2)CCNC/C1=C\c1ccc([N+](=O)[O-])cc1 [Compound 1583, (3E,5E)-5-[(4-chlorophenyl)methylidene]-3-[(4-nitrophenyl)methylidene]azepan-4-one] | – | – | – | 2 µM | pIC50 ([1]; Homo sapiens, HCT-116, Table 1): 5.48
CN1CCC(=Cc2ccc(C#N)cc2)C(=O)C(=Cc2ccc(C#N)cc2)C1 [Compound 1621] | – | – | 5.35 | 2 µM | –
O=C1C(=Cc2ccc(C(F)(F)F)c(F)c2)CCNCC1=Cc1ccc(C(F)(F)F)c(F)c1 [Compound 1626] | – | – | 6.10 | 8 µM | –
CC(=O)OCCC(=O)N1CCC(=Cc2ccc(Cl)c(F)c2)C(=O)C(=Cc2ccc(Cl)c(F)c2)C1 [Compound 1660] | 5.62 | 2 µM | – | – | –
CC(=O)OCC(=O)N1CC/C(=C\c2ccc(Cl)c(F)c2)C(=O)/C(=C/c2ccc(Cl)c(F)c2)C1 [Compound 1645] | 5.60 | 2 µM | – | – | –
O=C1C(=Cc2ccc(F)cc2)CCNCC1=Cc1ccc(F)cc1 [Compound 1561] | – | – | 6.00 | 1 µM | –
CN1CC/C(=C\c2ccc([N+](=O)[O-])cc2)C(=O)/C(=C/c2ccc([N+](=O)[O-])cc2)C1 [Compound 1563, (3E,5E)-1-methyl-3,5-bis[(4-nitrophenyl)methylidene]azepan-4-one] | – | – | – | 0.5 µM | pIC50 ([1]; Homo sapiens, HCT-116, Table 1): 5.82
COc1ccc(C=C2CN(C(C)=O)CCC(=Cc3ccc([N+](=O)[O-])cc3)C2=O)cc1 [Compound 1581] | 5.14 | 8 µM | – | – | –
CC(=O)OCC(=O)N1CC/C(=C\c2ccc(C(F)(F)F)cc2)C(=O)/C(=C/c2ccc(C(F)(F)F)cc2)C1 [Compound 1642] | 5.92 | 1 µM | – | – | –
C=CC(=O)N1CCC(=Cc2ccc([N+](=O)[O-])cc2)C(=O)C(=Cc2ccc(OC)cc2)C1 [Compound 1580] | 5.82 | 8 µM | – | – | –
COc1ccc(/C=C2\CNCC/C(=C\c3ccc([N+](=O)[O-])cc3)C2=O)cc1 [Compound 1575, (3E,5E)-3-[(4-methoxyphenyl)methylidene]-5-[(4-nitrophenyl)methylidene]azepan-4-one] | – | – | – | 1 µM | pIC50 ([1]; Homo sapiens, HCT-116, Table 1): 5.68
